In patent publication US8173689B2 (Novartis AG, priority 2006, dated 2012) one finds inhibition, CSF-1R percent inhibition and cKit percent inhibition data, which are given here for 22 compounds.

Read-outs that look alike come from different tables or passages of the source.

Experiment [1] deals with T1, cytoplasmic domain of the human CSF-1R (Homo sapiens, UniProt P07333).
T1 construct: Recombinant protein corresponding to the cytoplasmic domain of the human CSF-1R; purchased Invitrogen Corporation, Carlsbad, Calif; PV3249
T1 sequence (P07333 539-972 limits assumed): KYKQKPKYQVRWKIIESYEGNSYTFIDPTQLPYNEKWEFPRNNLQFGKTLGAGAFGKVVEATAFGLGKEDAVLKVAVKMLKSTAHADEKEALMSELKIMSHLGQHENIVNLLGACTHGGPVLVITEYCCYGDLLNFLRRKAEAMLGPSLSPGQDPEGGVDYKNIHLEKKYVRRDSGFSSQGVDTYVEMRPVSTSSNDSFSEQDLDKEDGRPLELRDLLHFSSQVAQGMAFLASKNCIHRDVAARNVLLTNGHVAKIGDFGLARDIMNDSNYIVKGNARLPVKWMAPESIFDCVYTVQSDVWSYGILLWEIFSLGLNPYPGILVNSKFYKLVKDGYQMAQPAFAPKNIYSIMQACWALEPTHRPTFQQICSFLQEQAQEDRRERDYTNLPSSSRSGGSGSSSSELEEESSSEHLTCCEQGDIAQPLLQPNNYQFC
In words: In vitro kinase assay for colony stimulating factor-1 receptor (AlphaScreen). Format: biochemical. The note with it: tested at about 1 μM; for inhibition at 1 µM: read-out: CSF-1R percent inhibition. On the procedure:
The kinase activity of various protein tyrosine kinases can be measured by providing ATP and a suitable peptide or protein tyrosine-containing substrate, and assaying the transfer of phosphate moiety to the tyrosine residue. Recombinant protein corresponding to the cytoplasmic domain of the human CSF-1R was purchased from Invitrogen Corporation, Carlsbad, Calif. U.S.A. (#PV3249). For each assay, test compounds were serially diluted, starting at 25 μM with 3 fold dilutions, in DMSO in 384 well plates then mixed with an appropriate kinase reaction buffer consisting of 50 mM Hepes, 5 mM MgCl2, 10 mM MnCl2, 0.1% BSA, pH 7.5, 1.0 mM dithiothreitol, 0.01% Tween 80 plus 1 μM ATP. […] Added to the stopped reaction mix was 30 μL of PT66 Alphascreen beads (Perkin Elmer, Boston, Mass., U.S.A.). The reaction was incubated overnight and read on the Envision (Perkin Elmer). Phosphorylated peptide product was measured with the AlphaScreen system (Perkin Elmer) using acceptor beads coated with anti-phosphotyrosine antibody PT66 and donor beads coated with streptavidin that emit a fluorescent signal at the 520-620 nm emission wave length if in close proximity.
CSF-1R kinase was added at final concentration of 4 nM.

In another experiment the target is T2, kinase domain of cKIT (Homo sapiens, UniProt P10721).
T2 construct: The kinase domain of cKIT was assayed in 50 mM Hepes; purchased Upstate 14-559
In words: Inhibition of cKIT kinase signaling in an in vitro biochemical assay (alphascreen). The settings on record: tested at about 1 μM; for inhibition at 1 µM: read-out: cKit percent inhibition. The protocol: (§1) The IC50 values for the inhibition of RTKs were determined in the alphascreen format measuring the inhibition by compound of phosphate transfer to a substrate by the respective enzyme. Briefly, the respective RTK domain purchased as human recombinant protein (cKIT Upstate #14-559, PDGFRb Invitrogen #P3082) were incubated with serial dilutions of compound in the presence of substrate and ATP concentrations within 3 times the Km of the enzyme.
(§2) Alphascreen PY20 beads were added to the stopped cKIT reactions and PY20 Ab/Protein A Alphascreen beads were added to the PDGFRβ stopped reactions. Both reactions were incubated overnight and read on the Alphascreen reader.

The next experiment deals with T3, kinase domain of PDGFRβ (Homo sapiens, UniProt P09619).
T3 construct: The kinase domain of PDGFRβ was assayed in 50 mM Hepes; purchased Invitrogen P3082
In words: Inhibition of PDGFRb kinase signaling in an in vitro biochemical assay (alphascreen). The note with it: tested at about 1 μM, read-out: PDGFRβ percent inhibition. The protocol:
as §1, §2

T3 sequence (P09619 600-962 limits assumed): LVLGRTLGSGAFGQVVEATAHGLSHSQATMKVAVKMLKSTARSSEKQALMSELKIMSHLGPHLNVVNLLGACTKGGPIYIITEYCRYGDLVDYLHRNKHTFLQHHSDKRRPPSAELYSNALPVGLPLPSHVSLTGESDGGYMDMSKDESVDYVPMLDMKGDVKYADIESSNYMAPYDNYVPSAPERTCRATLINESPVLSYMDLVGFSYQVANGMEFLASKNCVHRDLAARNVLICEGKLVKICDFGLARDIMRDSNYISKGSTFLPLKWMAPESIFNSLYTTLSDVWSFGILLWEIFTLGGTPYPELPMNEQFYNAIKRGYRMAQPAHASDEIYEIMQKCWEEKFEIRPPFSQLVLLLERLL
T2 sequence (P10721 589-937 limits assumed): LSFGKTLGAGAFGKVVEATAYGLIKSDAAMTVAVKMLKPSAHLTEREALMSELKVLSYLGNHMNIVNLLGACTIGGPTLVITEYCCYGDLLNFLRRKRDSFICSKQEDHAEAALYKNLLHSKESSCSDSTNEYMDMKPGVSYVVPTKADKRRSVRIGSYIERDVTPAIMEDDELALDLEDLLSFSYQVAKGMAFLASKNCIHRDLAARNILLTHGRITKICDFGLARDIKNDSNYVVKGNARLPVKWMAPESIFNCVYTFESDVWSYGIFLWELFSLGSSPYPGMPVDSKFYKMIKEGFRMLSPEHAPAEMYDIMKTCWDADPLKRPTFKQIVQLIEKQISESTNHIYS

`Cn1cc(-c2cc(Oc3ccc4nc(NCCC5CCOCC5)sc4c3)ccn2)cn1` [Example 361, 6-(2-(1-methyl-1H-pyrazol-4-yl)pyridin-4-yloxy)-N-(2-(tetrahydro-2H-pyran-4-yl)ethyl)benzo[d]thiazol-2-amine]: the values for the inhibition at 1 µM (in experiment [1]; at kinase domain of cKIT; at kinase domain of PDGFRβ) were 100%, 100% and 75%, respectively.
For the compound `CNC(=O)c1cc(Oc2ccc3nc(NC4CCN(Cc5ccccc5)CC4)oc3c2)ccn1` [Compound 103, 4-[2-(1-Benzyl-piperidin-4-ylamino)-benzooxazol-6-yloxy]-pyridine-2-carboxylic acid methylamide], the inhibition at 1 µM in experiment [1] came to 60%; at kinase domain of cKIT, 8%; on kinase domain of PDGFRβ, 14%.
On the same counts, the results for `CNC(=O)c1cc(Oc2ccc3nc(N[C@H]4CCCC[C@H]4NC(=O)CC(C)C)sc3c2)ccn1` [Example 311, N-methyl-4-(2-((1S,2R)-2-(3-methylbutyanamido)cyclo-hexylamino)benzo[d]thiazol-6-yloxy)picolinamide] are 93%, 22% and 88%.
On to `CN1CCN(c2cc(Oc3ccc4nc(N[C@@H]5CCCC[C@H]5O)sc4c3)ccn2)CC1` [Cmpd 176, (1R,2R)-2-(6-(2-(4-methylpiperazin-1-yl)pyridin-4-yloxy)benzo[d]thiazol-2-ylamino)cyclohexanol], for which the figures for the inhibition at 1 µM (in experiment [1] (compounds of Table 3); at kinase domain of cKIT (compounds of Table 3); on kinase domain of PDGFRβ (compounds of Table 3)) were 63%, 12% and 0%, respectively.
Consider `CNC(=O)c1cc(Oc2ccc3nc(N[C@H]4CCCC[C@H]4NC(=O)NC(C)C)sc3c2)ccn1` [Example 301, 4-(2-((1S,2R)-2-(3-isopropylureido)cyclohexyl-amino)benzo[d]thiazol-6-yloxy)-N-methylpicolinamide], for which the figures for the inhibition at 1 µM (in experiment [1]; on kinase domain of cKIT; at kinase domain of PDGFRβ) were 55%, 0% and 7%, respectively.
Taken in the same sequence, the figures for `N#Cc1cc(Oc2ccc3nc(NCC4CCCCC4)oc3c2)ccn1` [Compound 82, 4-[2-(Cyclohexylmethyl-amino)-benzooxazol-6-yloxy]-pyridine-2-carbonitrile] were 46%, 9% and 0%.
On the same counts, the results for `CNC(=O)c1cc(Oc2ccc3nc(NC4CCN(C(C)=O)CC4)sc3c2)ccn1` [Example 307, 4-(2-(1-acetylpiperidin-4-ylamino)benzo[d]thiazol-6-yloxy)-N-methylpicolinamide] are 90%, 15% and 6%.
On to `CNC(=O)c1cc(Oc2ccc3nc(N[C@H](CCO)c4ccccc4)oc3c2)ccn1` [Compound 51, 4-[2-((R)-3-Hydroxy-1-phenyl-propylamino)-benzooxazol-6-yloxy]-pyridine-2-carboxylic acid methylamide], for which the inhibition at 1 µM in experiment [1] is 95%; at kinase domain of cKIT, 40%; on kinase domain of PDGFRβ it was 2%.
For the compound `CNC(=O)c1cnccc1Oc1ccc2nc(N[C@@H]3CCCC[C@H]3O)sc2c1` [Example 291, 4-(2-((1R,2R)-2-hydroxycyclohexylamino)benzo[d]thiazol-6-yloxy)-N-methylnicotinamide], the inhibition at 1 µM in experiment [1] (compounds of Table 3) came out at 48%; at kinase domain of cKIT (compounds of Table 3), 4%; at kinase domain of PDGFRβ (compounds of Table 3), 0%.
In the case of `CNC(=O)c1cc(Oc2ccc3nc(N[C@H](C(=O)OC)c4ccccc4)oc3c2)ccn1` [Compound 55, (S)-[6-(2-Methylcarbamoyl-pyridin-4-yloxy)-benzooxazol-2-ylamino]-phenyl-acetic acid methyl ester], the values for the inhibition at 1 µM (in experiment [1]; at kinase domain of cKIT; at kinase domain of PDGFRβ) were 97%, 21% and 11%, respectively.
In experiment [1] (compounds of Table 4), “4-[2-(Benzo[1,3]dioxol-5-yl- amino)-benzooxazol-6- yloxy]-pyridine-2-carboxylic acid methylamide [Compound 95]” yielded a CSF-1R percent inhibition of 100%. The cKit percent inhibition at kinase domain of cKIT (compounds of Table 4) was 42%.
`CNC(=O)c1cc(Oc2ccc3nc(N[C@@H]4CCCC[C@H]4NC(=O)C(C)C)sc3c2)ccn1` [Example 327, 4-(2-((1R,2R)-2-isobutyramidocyclohexyl-amino)benzo[d]thiazol-6-yloxy)-N-methylpicolinamide]: the figures for the inhibition at 1 µM (in experiment [1]; on kinase domain of cKIT; on kinase domain of PDGFRβ) were 47%, 6% and 0%, respectively.
Turning to `CNC(=O)c1cc(Oc2ccc3nc(N[C@@H](C)c4ccc5ccccc5c4)oc3c2)ccn1` [Compound 20, 4-[2-((S)-1-Naphthalen-2-yl-ethylamino)-benzooxazol-6-yloxy]-pyridine-2-carboxylic acid methylamide], the inhibition at 1 µM was found to be 15% in experiment [1] and 0% at kinase domain of PDGFRβ.
Taken in the same sequence, the figures for `CNC(=O)c1cc(Oc2ccc3nc(NC4CCOCC4)oc3c2)ccn1` [Compound 30, 4-[2-(Tetrahydro-pyran-4-yl-amino)-benzooxazol-6-yloxy]-pyridine-2-carboxylic acid methylamide] were 25% and 14%.
Taken in the same sequence, the figures for `CNC(=O)c1cc(Oc2ccc3nc(Nc4ccccc4CCN4CCCC4)oc3c2)ccn1` [Compound 43, 4-{2-[2-(2-Pyrrolidin-1-yl-ethyl)-phenylamino]-benzooxazol-6-yloxy}-pyridine-2-carboxylic acid methylamide] were 26% and 15%.
In the case of `CNC(=O)c1cc(Oc2ccc3nc(N[C@@H](C(=O)O)c4ccccc4)oc3c2)ccn1` [Compound 35, (R)-[6-(2-Methylcarbamoyl-pyridin-4-yloxy)-benzooxazol-2-ylamino]-phenyl-acetic acid], the inhibition at 1 µM in experiment [1] was 19%; on kinase domain of PDGFRβ it was 9%.
On the same counts, the results for `CNC(=O)c1cc(Oc2ccc3nc(N[C@H](C(=O)NC)c4ccccc4)oc3c2)ccn1` [Compound 39, 4-{2-[((S)-Methylcarbamoyl-phenyl-methyl)-amino]-benzooxazol-6-yloxy}-pyridine-2-carboxylic acid methylamide] are 67% and 10%.
Taken in the same sequence, the figures for `CNC(=O)c1cc(Oc2ccc3nc(N[C@@H](CO)c4ccccc4)oc3c2)ccn1` [Compound 37, 4-[2-((R)-2-Hydroxy-1-phenyl-ethylamino)-benzooxazol-6-yloxy]-pyridine-2-carboxylic acid methylamide] were 79% and 16%.
Taken in the same sequence, the figures for `CNC(=O)c1cc(Oc2ccc3nc(N[C@H](C(=O)O)c4ccccc4)oc3c2)ccn1` [Compound 38, (S)-[6-(2-Methylcarbamoyl-pyridin-4-yloxy)-benzooxazol-2-ylamino]-phenyl-acetic acid] were 34% and 14%.
On to `CNC(=O)c1cc(Oc2ccc3nc(NC4CCCC4)oc3c2)ccn1` [Compound 23, 4-(2-Cyclopentylamino-benzooxazol-6-yloxy)-pyridine-2-carboxylic acid methylamide], for which the results for the inhibition at 1 µM (in experiment [1]; on kinase domain of PDGFRβ) were 50% and 0%, respectively.
In the case of `CNC(=O)c1cc(Oc2ccc3nc(NC(C)c4nccs4)oc3c2)ccn1` (stereo not drawn) [Compound 6, 4-[2-(1-Thiazol-2-yl-ethylamino)-benzooxazol-6-yloxy]-pyridine-2-carboxylic acid methylamide], in experiment [1], the inhibition at 1 µM came to 85%.
As to `CNC(=O)c1cc(Oc2ccc3nc(Nc4ccccc4-n4cnc(C)c4)oc3c2)ccn1` [Compound 45, 4-{2-[2-(4-Methyl-imidazol-1-yl)-phenylamino]-benzooxazol-6-yloxy}-pyridine-2-carboxylic acid methylamide], the inhibition at 1 µM in experiment [1] was 11%; on kinase domain of PDGFRβ, 14%.
